This is an account of results in paper PMC3688580, “Crystal Structure, SAXS and Kinetic Mechanism of Hyperthermophilic ADP-Dependent Glucokinase from Thermococcus litoralis Reveal a Conserved Mechanism for Catalysis” (PLoS ONE, 2013).

Test [1] has as its target T1, TlGK (ADP-dependent glucokinase from Thermococcus litoralis) (Thermococcus litoralis, UniProt Q7M537).
T1 construct: gene glkA; recombinant, purified from LB culture as in Merino et al. (heat shock, ammonium sulfate, two chromatographic steps); two-domain enzyme
The experiment in a line: X-ray crystal structure […] Å; SAXS. It is filed as binding.

Test [2] has as its target T1, TlGK (ADP-dependent glucokinase from Thermococcus litoralis). The test is described as follows: product inhibition, discontinuous pyruvate kinase / lactate dehydrogenase assay. Particulars: mixed type vs Mg·ADP and vs D-glucose; read-out: inhibition constants. It is filed as biochemical.
For test [3] the target is unchanged. The experiment in a line: isothermal titration calorimetry (data not shown); also SAXS. The test is classed as binding. Particulars: absence of D-glucose; active site; MgADP.
For test [4] the target is unchanged. The test is described as follows: product inhibition, G6PDH-coupled assay. It is filed as biochemical. Particulars: competitive vs Mg·ADP, mixed vs D-glucose; Mg·AMP; pH 7.8; 40 °C.

T1 sequence (Q7M537 whole entry): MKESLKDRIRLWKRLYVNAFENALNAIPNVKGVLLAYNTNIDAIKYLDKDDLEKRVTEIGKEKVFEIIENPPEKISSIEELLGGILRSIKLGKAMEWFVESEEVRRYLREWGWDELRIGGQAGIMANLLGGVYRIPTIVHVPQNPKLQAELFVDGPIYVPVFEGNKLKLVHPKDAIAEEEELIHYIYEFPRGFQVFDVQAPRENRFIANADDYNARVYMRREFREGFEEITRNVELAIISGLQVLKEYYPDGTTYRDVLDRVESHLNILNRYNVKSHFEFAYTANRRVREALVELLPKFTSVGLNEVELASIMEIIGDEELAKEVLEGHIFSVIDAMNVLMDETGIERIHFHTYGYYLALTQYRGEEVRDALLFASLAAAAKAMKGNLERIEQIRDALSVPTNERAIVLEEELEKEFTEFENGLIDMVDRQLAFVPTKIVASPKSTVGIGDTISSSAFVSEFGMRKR

Take `Nc1ncnc2c1ncn2[C@@H]1O[C@H](COP(=O)(O)OP(=O)(O)S)[C@@H](O)[C@H]1O` (some centres unmarked) [ADPβS]: the “X-ray crystal structure 2.58 Å; SAXS” value in test [1] (nonhydrolyzable ADP analog with D-glucose and Mg, beta-phosphate lacked density, modelled as AMP) is on record as 4B8S (TlGK·Mg·ADPβS·D-glucose).

On to `O=P(O)(O)OC[C@H]1OC(O)[C@H](O)[C@@H](O)[C@@H]1O` (stereo partly drawn) [D-glucose-6-P], for which, in test [2], the Ki amounted to 782 µM.

With `OC[C@H]1OC(O)[C@H](O)[C@@H](O)[C@@H]1O` (stereo partly drawn) [D-glucose], the “X-ray crystal structure 2.58 Å; SAXS” value in test [1] (ternary complex with Mg·ADPβS, active site) is listed as 4B8S (TlGK·Mg·ADPβS·D-glucose).

For `Nc1ncnc2c1ncn2[C@@H]1O[C@H](COP(=O)(O)OP(=O)(O)O)[C@@H](O)[C@H]1O` [Mg·ADP], the dissociation constant result in test [3] is given as “isothermal titration calorimetry experiments demonstrated binding of MgADP to the enzyme”.

Take `Nc1ncnc2c1ncn2[C@@H]1O[C@H](COP(=O)(O)O)[C@@H](O)[C@H]1O` [Mg·AMP]: in test [4], the inhibition constants result is given as “Mg·AMP behaves as a competitive inhibitor of Mg·ADP”.
